Test results from paper PMC6480711, “The Molecular and Structural Basis of O-methylation Reaction in Coumarin Biosynthesis in Peucedanum praeruptorum Dunn” (International Journal of Molecular Sciences, 2019).

Assays:
COMT-S = target: T1, COMT-S (Kitagawia praeruptora, UniProt A0A4P8DY91); test: isothermal titration calorimetry; format: binding; conditions: 25 mM Tris-HCl pH 8.0, 150 mM NaCl, 25 °C; cofactor analogue (product of SAM)
T1 construct: full-length CDS in pET28a, 6xHis tag, E. coli BL21 (DE3), Superdex 200
T1 sequence (A0A4P8DY91 1-364): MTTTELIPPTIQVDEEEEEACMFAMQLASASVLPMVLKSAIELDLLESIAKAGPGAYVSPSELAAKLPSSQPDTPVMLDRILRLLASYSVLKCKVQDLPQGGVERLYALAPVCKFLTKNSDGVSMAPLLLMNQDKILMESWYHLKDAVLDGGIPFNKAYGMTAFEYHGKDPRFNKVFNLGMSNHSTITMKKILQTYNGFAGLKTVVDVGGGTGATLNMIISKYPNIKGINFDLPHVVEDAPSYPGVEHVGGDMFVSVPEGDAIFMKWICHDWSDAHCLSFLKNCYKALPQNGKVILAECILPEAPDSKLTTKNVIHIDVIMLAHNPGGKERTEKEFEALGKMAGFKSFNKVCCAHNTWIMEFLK

PpBMT = target: T2, PpBMT (Kitagawia praeruptora, UniProt A0A166U5H3); test: HPLC product analysis; format: biochemical; conditions: co-substrate SAM; product bergapten
T2 construct: gene BMT; recombinant, construct as in the authors' previous report
T2 sequence (A0A166U5H3 whole entry): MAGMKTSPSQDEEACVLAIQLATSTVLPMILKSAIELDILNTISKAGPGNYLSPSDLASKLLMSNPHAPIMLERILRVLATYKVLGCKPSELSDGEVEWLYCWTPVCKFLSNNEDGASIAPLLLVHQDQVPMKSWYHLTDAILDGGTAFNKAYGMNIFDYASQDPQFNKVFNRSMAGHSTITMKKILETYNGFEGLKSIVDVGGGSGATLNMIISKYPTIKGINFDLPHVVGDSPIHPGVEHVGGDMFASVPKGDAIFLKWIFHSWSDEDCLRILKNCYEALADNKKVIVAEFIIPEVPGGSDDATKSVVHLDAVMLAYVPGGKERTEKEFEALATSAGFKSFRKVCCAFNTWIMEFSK

Row | SMILES | equilibrium dissociation constant (COMT-S) | HPLC product analysis (PpBMT)
1 | Nc1ncnc2c1ncn2[C@@H]1O[C@H](CSCC[C@H](N)C(=O)O)[C@@H](O)[C@H]1O [SAH] | The equilibrium dissociation constants of PpBMT/COMT–SAH interactions were determined by an MicroCal Auto-ITC200 calorimeter | –
2 | O=c1ccc2c(O)c3ccoc3cc2o1 [bergaptol] | – | COMT-S could accept esculetin, bergaptol, and xanthotoxl as substrates, while BMT could only catalyze bergaptol
